# Laboratory results taken from US6632455B2, “Molecular dispersion composition with enhanced bioavailability” (Schering Corporation, priority 1997, dated 2003).
# Columns and labels:
# [1] = test system: abnormal growth of cells; settings: cited from earlier work
# [2] = target: farnesyl protein transferase (Homo sapiens, UniProt P49356); settings: cited from earlier work
# [3] = Bioavailability assay: single oral dose, plasma analysed by HPLC-UV, AUC compared with amorphous suspension control; type: in vivo, male cynomolgus monkeys; settings: for bioavailability (in words): observed while developing a solid dosage form with conventional excipients
# Method: The formulation to be tested was administered orally to male cynomolgus monkeys in a single dose (PO, single). The number of monkeys for each test is indicated by the letter “N” followed by an equal sign and a number. Thus, “(N=6)” means the formulation was administered to six monkeys. The total amount of the compound of Formula I administered was 100 or 200 mg given as one capsule or tablet containing 100 or 200 mg each. The administered dose (tablet, capsule or control suspension) was slowly washed down with 10 mL of water. Blood samples were taken at 15, 30 minutes, 1 hour, 2 hours, 4 hours, 6 hours, 8 hours, 12 hours, 24 hours, and 48 hours in heparinized syringes. Plasma for analysis was obtained by centrifugation at 4° C. Plasma samples (one per time point) were split and stored at −20° C. until assayed as described below.
# The monkeys to be tested were fed two biscuits in the morning on the day of drug administration.
# Monkeys that were fasted were not given any food overnight before drug administration and were fed normally after the 4-hour time point after drug administration.
# Samples of monkey plasma were collected at selected time intervals. The plasma was analyzed by a high pressure liquid chromatograph (HPLC) procedure with ultraviolet detection. AUC (area under the plasma concentration-time curve, […]) values were calculated using standard procedures to determine the relative bioavailability of the compound in the tested formulations. The larger the AUC value, the greater the bioavailability.
# A suspension of the compound of Formula I was used as a control. The control was made by suspending sufficient compound of Formula I in methyl cellulose solution to provide a dose of 30 mg/kg of body weight of monkey. The 0.4% methyl cellulose solution was made by adding 4 grams of methyl cellulose to one liter of distilled water and heating at about 80° C. with stirring for about 1½ hours.
# The results of the bioavailability assay are given in terms of percent-relative bioavailability (AUC ratio) compared to amorphous suspension of Compound I in 0.4 methyl cellulose solution.
# [4] = fed monkeys, suspension of crystalline form vs suspension of amorphous form
# [5] = suspension of crystalline form vs suspension of amorphous form, feeding state not printed in the sentence (fasted implied by b145)
structure (smiles),measurement,setting,value
"NC(=O)N1CCC(CC(=O)N2CCC(C3c4ncc(Br)cc4CCc4cc(Cl)cc(Br)c43)CC2)CC1 (single isomer, unassigned; (+)) [Compound I, (+)-4-[4-(8-chloro-3,10-dibromo-6,11-dihydro-5H-benzo [5,6cyclohepta[1,2-b]pyridin-11-yl)-1-piperidinyl]-2-oxoethyl]-1-piperidinecarboxamide]",activity for inhibiting the abnormal growth of cells (in words),[1],potent activity
same,activity for inhibiting farnesyl protein transferase (in words),[2],potent activity
same,"relative bioavailability, % of the AUC of the amorphous suspension",[3]; [4],3.6%
same,"relative bioavailability, % of the C max of the amorphous suspension",[3]; [4],5.2%
same,bioavailability (in words),[3]; listed as compound of Formula I,extremely poor
same,bioavailability (in words),[3]; listed as crystalline Compound I,very poor
same,"relative bioavailability, % of the AUC of the amorphous suspension",[3]; [5],1.3%
same,"relative bioavailability, % of the Cmax of the amorphous suspension",[3]; [5],2.7%
